Some results are limits rather than exact numbers.

This test has as its target Transforming acidic coiled-coil-containing protein 3 (Homo sapiens) (UniProt Q9Y6A5). The experiment in a line: inhibition of ARNT PAS-B/TACC3 complex formation – biochemical, AlphaScreen, cherry-picked samples, confirmation (AID 651703).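 Note: TACC3 partner is the GST-tagged E629A mutant dimer; hits lower the signal meaning they disrupt ARNT binding to TACC3.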 The note with it: AlphaScreen His-ARNT PAS-B / GST-TACC3 binding, luminescence. (In general: In Alpha technology, singlet oxygen from a donor bead excites a nearby acceptor bead.)
Consider `c1ccc(CCNc2nc(-c3ccccn3)nnc2-c2ccccc2)cc1`, for which the AC50 was 0.513 µM.

With `C/C(=N\NC(=O)c1c[nH]c2ccccc12)c1ccc(C)o1`, the AC50 was 16.4 µM. With `COc1cc(CNCc2ccccn2)ccc1OCc1ccc(Cl)cc1` the figure was 60.7 µM; with `CN(CC(=O)O)Cc1nc2ccccc2[nH]1`, 7.77 µM. With `O=C(CN1C(=O)COc2ccccc21)Nc1ccc(F)cc1` the figure was 3.96 µM; with `O=C(N[C@@H]1CC[C@@H](CCn2cc(-c3ccccn3)nn2)O[C@H]1CO)c1ccncc1`, 16.7 µM; with `O=S(=O)(N[C@H]1CC[C@H](CCn2cc(-c3ccccn3)nn2)O[C@@H]1CO)c1cccc(Cl)c1`, 19.2 µM. Next, `c1ccc(-c2ccc(SCc3cccnc3)nn2)nc1`: 1.81 µM; `CCOc1cc(CNCc2ccccn2)cc(Cl)c1OC`: 39.7 µM; `COc1ccccc1NC(=O)CSc1n[nH]c(-c2ccccn2)n1`: 0.821 µM. With `CS(=O)(=O)c1ccccc1-c1nnc(NC(=O)c2ccc3ncsc3c2)o1`, the AC50 was 25.4 µM.

Regarding `COC(=O)c1ccc2[nH]c3c(c2c1)CC(C)CC3` (configuration not stated), the AC50 is 33.2 µM. On to `O=C(N/N=C/c1cc(Cl)cc(Cl)c1O)c1ccncc1`, for which the concentration at half-maximal activity (AC50) was 3.58 µM. Next, `O=C(NCCCn1ccnc1)C(F)(F)C(F)(F)C(=O)NCCCn1ccnc1`: 38.5 µM; `Oc1c(CN2CCCCC2)cc(Br)c2cccnc12`: 0.995 µM. With `N#Cc1ccc(C(=O)Nc2nnc(-c3ccccn3)o2)cc1` the figure was 22.4 µM. On to `COc1c(O)cccc1/C=N/NC(=O)Cn1ccnc1C`, for which the AC50 is 8.02 µM. In the case of `CCOC(=O)N1CCN(C(c2cccnc2)c2ccc3cccnc3c2O)CC1` (configuration not stated), the AC50 was 4.64 µM. Next, `C[C@H](Nc1nc(-c2ccccn2)nnc1-c1ccccc1)C1CCCCC1`: 0.53 µM; `O=C(N[C@H]1CC[C@H](CCn2cc(-c3ccccn3)nn2)O[C@@H]1CO)c1cccnc1`: 9.74 µM. With `CN1CCN(C2CCN(Cc3ccc(O)c4ncccc34)CC2)CC1` the figure was 2.3 µM; with `Cc1cccc(C(=O)Nc2nnc(-c3ccco3)o2)c1`, 5.86 µM; with `Clc1ccc(OCc2nc(-c3ccccn3)n[nH]2)cc1`, 5.91 µM.

For `COc1cc(-c2nnc(NC(=O)c3ccco3)o2)cc(OC)c1OC`, the AC50 was 66.9 µM. With `N[C@@H]1CC[C@H](CCn2cc(-c3ccccn3)nn2)O[C@H]1CO` the figure was 1.13 µM; with `O=C(CSc1ccc2nnc(-c3ccccn3)n2n1)NCc1ccco1`, 9.49 µM. With `O=C(CSc1ccc(-c2ccccn2)nn1)Nc1cccc(F)c1` the figure was 1.16 µM. Next, `CC(C)C(=O)NC(c1cccc([N+](=O)[O-])c1)c1ccc2cccnc2c1O` (configuration not stated): 3.82 µM. Regarding `COc1ccc2nc(/N=C/c3c(C)[nH]n(-c4ccc(C)cc4)c3=O)sc2c1`, the AC50 was 46.3 µM.

Consider `COc1ccc(Nc2cc3n(c(=O)n2)CCc2cc(OC)c(OC)cc2-3)cc1`, for which the AC50 was 68.6 µM. With `Cc1ccc(S(=O)(=O)n2oc(=O)c(C3CCCCC3)c2N)cc1` the figure was 16 µM; with `O=C(Nc1ccccc1C(=O)Nc1ccccc1C(=O)O)c1ccccc1`, 65.3 µM; with `O=C(COc1nsnc1N1CCOCC1)N/N=C/c1ccccc1O`, 34.9 µM.

On to `CN(C)C(=O)CSc1cccc2cccnc12`, for which the AC50 is 4.27 µM. With `Brc1ccc(OCc2nc(-c3ccccn3)n[nH]2)cc1` the figure was 3.6 µM; with `c1ccc(-c2ccc(CNc3nc(-c4ccccn4)nnc3-c3ccccc3)cc2)cc1`, 1.6 µM; with `CC(C)(C)C1=CC(=Nc2ccccc2N)C=C(C(C)(C)C)C1=O`, 1.47 µM. With `COc1ccc(Cc2nnc(N/N=C/c3ccccc3O)[nH]c2=O)cc1OC` the figure was 1.42 µM.

Take `N#Cc1ccc(C(=O)Nc2nnc(-c3ccco3)o2)cc1`: the AC50 is 27.7 µM. Next, `COc1ccc(C2CC(=O)Oc3c(C(CCN4CCCCC4)c4ccc(N(C)C)cc4)c(OC)cc(OC)c32)cc1` (configuration not stated): 10.2 µM; `Nc1nnc2c(n1)CCCC2`: 4.63 µM. Turning to `Oc1ccccc1C(Nc1nccs1)c1ccc2cccnc2c1O` (configuration not stated), the concentration at half-maximal activity (AC50) is 4.85 µM. Next, `c1ccc(-c2cnc(Nc3nc(-c4ccccn4)nnc3-c3ccccc3)s2)cc1`: 0.916 µM; `COc1ccc2nc(-c3ccccn3)[nH]c2c1`: 29 µM; `O=S(=O)(N[C@@H]1CC[C@H](CCn2cc(-c3ccccn3)nn2)O[C@@H]1CO)c1cccc(Cl)c1`: 16.7 µM. As for `Cc1ccc(-n2c(-c3ccc(Br)cc3)c[n+]3c2CCc2ccc4cccnc4c2-3)cc1`, the AC50 was 1.45 µM. With `O=C(NN=C(c1ccccc1)c1ccccn1)c1ccccc1` the figure was 16.9 µM; with `CN1CCN(C(c2ccccn2)c2cc(Cl)c3cccnc3c2O)CC1` (configuration not stated), 3.98 µM; with `COc1ccc(CCNC(=O)CSc2nnc(Cc3csc(N)n3)n2C)cc1OC`, 61 µM. With `CCCOc1ccc(/C=N/Nc2cc(N3CCOCC3)ncn2)c(O)c1` the figure was 8 µM; with `N/C(=N\OC(=O)Cc1ccc([N+](=O)[O-])cc1)c1ccccn1`, 21.5 µM. With `N#CC1(c2ccccc2)CCN(Cc2ccc(O)c3ncccc23)CC1` the figure was 3.66 µM; with `O=S(=O)(N[C@H]1CC[C@@H](CCn2cc(-c3ccccn3)nn2)O[C@H]1CO)c1cccc(Cl)c1`, 23.4 µM; with `Cc1cc(C(=O)N/N=C/c2c(CO)cnc(C)c2O)c2ccccc2n1`, 3.5 µM. For `N[C@H]1CC[C@@H](CCn2cc(-c3ccccn3)nn2)O[C@H]1CO`, the AC50 was 1.42 µM. Next, `O=S(=O)(N[C@H]1CC[C@H](CCn2cc(-c3ccccn3)nn2)O[C@H]1CO)c1cccc(F)c1`: 21.8 µM.

Take `CN(Cc1ccccc1)C(=O)c1[nH]cnc1C(=O)Nc1nccs1`: the AC50 is 22.5 µM. With `Cc1cccc(OCc2nc(-c3ccccn3)n[nH]2)c1` the figure was 5.94 µM; with `Cc1ccc(S(=O)(=O)CCc2nnc(NC(=O)c3ccccn3)s2)cc1`, 3.01 µM. With `O=C(COC(=O)c1ccc([N+](=O)[O-])s1)NCc1ccccc1` the figure was 37 µM; with `O=c1[nH]c(N2CCOCC2)cc2ccccc12`, 63.8 µM. With `Cc1n[nH]c(=O)nc1N/N=C/c1ccco1` the figure was 42.5 µM; with `C[C@@H]1CN([C@@H](C)CO)C(=O)Cc2cc(NC(=O)Nc3cccc4ccccc34)ccc2O[C@H]1CN(C)Cc1ccc(Oc2ccccc2)cc1`, 18.4 µM. Turning to `O=C(Cn1cnc([N+](=O)[O-])n1)N/N=C/c1cc(Cl)ccc1O`, the AC50 is 4.77 µM.

With `O=C(N[C@H]1CC[C@@H](CCn2cc(-c3ccccn3)nn2)O[C@H]1CO)c1ccncc1`, the AC50 is 9.53 µM. For the compound `COc1cc(OC)c(C(=O)OCC(=O)Nc2nnc(-c3ccccc3)o2)cc1OC`, the AC50 is 19 µM. Next, `CN1CCN(c2nc(-c3ccccn3)nnc2-c2ccccc2)CC1`: below 0.5 µM; `Nc1ccccc1C(=O)N=Nc1[nH]c(N)c2ccccc12`: 10.3 µM. Next, `O=C(CSc1ccc(-c2ccccn2)nn1)NCc1ccc(Cl)cc1`: 11 µM. With `COc1cc2c(c(OC)c1OC)-c1ccc(O)c(=O)cc1[C@@H](N)CC2` the figure was 29.7 µM. With `O=c1cc(N/N=C/c2ccccc2)[nH]c(=O)[nH]1`, the AC50 is 31.8 µM. With `Cc1ncc(CO)c(/C=N/NC(=O)c2cc(Br)ccc2O)c1O` the figure was 8.86 µM.

A word on the AC50: it is the midpoint of the concentration-response curve, whichever way the signal moves.

The record behind these values is PubChem BioAssay AID651703 (Broad Institute, 2012).
